From patent US5620960A, “Use of D-allose as an immunosuppressive agent” (UOP, priority 1994, dated 1997)
Entries after “also recorded” stand apart in the source; their conditions may differ.

Legend:
salmonella = experiment: salmonella/mammalian--microsome reverse mutation assay; assay type: cell-based
Source text: 1) salmonella/mammalian--microsome reverse mutation assay;

mouse lymphoma = assay type: cell-based
Source text: 2) mouse lymphoma forward mutation assay;

[1] = test system: chinese hamster ovary cells; assay type: cell-based
Source text: 3) chromosomal aberrations in chinese hamster ovary cells;

Balb cells = assay type: cell-based
Source text: 4) in vitro transformation of Balb cells;

human lymphocytes = assay type: cell-based
Source text: 5) sister chromatid exchange in human lymphocytes with and without activation.

Male Rats = experiment: Acute Oral Toxicity Study in Male Rats; assay type: in vivo, rat
Source text: Acute Oral Toxicity Study in Male Rats

[2] = test system: segmented neutrophils, leukocytes, erythrocytes, platelets; experiment: 28-day rat gavage study: Hematology (blood cell counts); assay type: in vivo, rat (Crl:CD®BR); conditions: for Segmented Neutrophils (mean): terminal (28 days); for Segmented Neutrophils (mean) / Band Neutrophils (mean) / Basophils (mean) / Other Cells (mean) / Eosinophils (mean) / Monocytes (mean) / Erythrocytes (mean) / Leukocytes (mean) / Platelets (mean) / Lymphocytes (mean): N 5; for Band Neutrophils (mean) / Basophils (mean) / Other Cells (mean) / Eosinophils (mean) / Monocytes (mean) / Erythrocytes (mean) / Leukocytes (mean) / Platelets (mean) / Lymphocytes (mean): terminal; for Band Neutrophils (mean) / Basophils (mean) / Other Cells (mean): control 0.0; for Leukocytes (mean): control 9.6; for Platelets (mean): p ≤ 0.01; for Lymphocytes (mean): control 7.4
Protocol: (§1) D-allose or deionized water was administered to 15 male and 15 female rats (Crl:CD®BR rats approximately 4 weeks of age from Charles River Laboratories) by gavage once daily for 28 days at dosage levels of D-allose of 3.1 and 5.1 g/Kg/day.
(§2) Each rat was observed twice daily for mortality, morbidity and overt signs of toxicity. Detailed observations were performed once during each study week. Individual body weights, food consumption, food efficiency and water consumption were recorded daily. Hematology, biochemistry and urinalysis evaluations were conducted on all male and female animals during the last week of study. At study termination, all animals were euthanized. […] A complete set of major tissues and organs was harvested and selected organ weights were determined. Protocol-specified tissues were processed histologically and microscopic examination was conducted.
(§3) Clinical laboratory studies were conducted on all main animals at termination of study. Blood samples were obtained from the orbital sinus following an overnight fasting period in which water was available. Urine was collected during the fasting period.
(§4) As a result, bone marrow smears were examined for all animals.

Crl:CD®BR rats = test system: Crl:CD®BR rats; design: species or system rat (Crl:CD®BR); conditions: rat, in vivo
Protocol: as §1, §2
The rats were observed twice daily for signs of overt toxicity at the times of the morbidity/mortality checks. Detailed observations were conducted once each study week during the 28 days of the study.
Individual body weights were recorded daily for the 28 days of the study.
For the first 28 days of the study, individual food consumption was recorded daily and food efficiency was calculated. […] Increases and decreases occurred in food efficiency values for males and females at all treatment levels, with no obvious trend.
Individual water consumption was recorded daily for the 28 days of the study.

[3] = 28-day rat gavage study: Biochemistry and urinalysis; assay type: in vivo, rat (Crl:CD®BR); conditions: 28 days
Protocol: as §1, §2, §3

bone marrow = experiment: 28-day rat gavage study: Bone Marrow smears; assay type: in vivo, rat (Crl:CD®BR)
Protocol: as §1, §2, §4

major tissues and organs = experiment: 28-day rat gavage study: Anatomic Pathology (necropsy and histopathology); assay type: in vivo, rat (Crl:CD®BR); conditions: 28 days gavage, listed organs
Protocol: as §1, §2

[4] = D-allose Excretion Routes ([^14 C]D-allose, liquid scintillation counting); assay type: in vivo, rat
Source text: (§5) This study was patterned after that Example 1 where a satellite group of animals received radiolabeled D-allose to establish excretion routes. On day 28, the animals in the satellite groups (5 controls, 5 males and 5 females) received a single dose of [^14 C]D-allose for-study days 1-28 at the same dose concentration as the non-radiolabeled material except for the "Control Satellite Group" which received a single high dose containing radiolabeled D-allose.
(§6) On days 1-27, all control group animals (main and satellite) received deionized water at the same dosage volume as the test animals. However, on day 28 the satellite control animals became "Unadapted High Dose Test Animals" in that they received a high dose (5.1 g/kg) of radiolabeled D-allose. In this manner the "Unadapted High Dose Test Animals" could be directly compared to the multiple high dose animals which were adapted by administration of the high dose for 28 days.
Each rat was observed twice daily for mortality, morbidity and overt signs of toxicity. Detailed observations were performed once during each study week. Individual body weights, food consumption, food efficiency and water consumption were recorded daily. […] Feces samples were collected at 24, 48, 72 and 96 hours after radiolabeled dosing from the satellite group animals. Duplicate aliquots of expired air solution, urine, feces and cage wash were analyzed by liquid scintillation counting (LSC). At study termination, all animals were euthanized. The carcasses from the satellite groups were analyzed for radioactive content only.

[5] = rat, in vivo
Source text: as §5, §6
HPLC (High Pressure Liquid Chromatography) of urine from treated animals was compared with C^14 radiolabeled D-allose spiked urine from control animals.

water solubility = assay type: physicochemical
[6] = acute oral, 5 grams/Kg, male rats
[7] = females, D-allose 3.1 g/kg/day, control 0.1
[8] = males, D-allose 3.1 g/kg/day, control 0.2
[9] = males, D-allose 5.1 g/kg/day, control 0.2

O=C[C@H](O)[C@H](O)[C@H](O)[C@H](O)CO [D-allose]
mutagenic properties (salmonella): no mutagenic properties | mutagenic properties (mouse lymphoma): no mutagenic properties | mutagenic properties [1]: no mutagenic properties | mutagenic properties (Balb cells): no mutagenic properties | mutagenic properties (human lymphocytes): no mutagenic properties | body weight changes (Male Rats; [6]): no remarkable body weight changes | mortalities (Male Rats; [6]): no mortalities | pharmacotoxic signs (Male Rats; [6]): no pharmacotoxic signs | visible post-mortem abnormalities (Male Rats; rat, in vivo, po): no visible post-mortem abnormalities | segmented neutrophils in some high dose group animals ([2]; 5.1 g/Kg/day, 28 days): very low or not countable | platelets (result in words) ([2]; 28 days gavage, 3.1 and 5.1 g/Kg/day, both sexes): significant reduction in platelet formation; also recorded: dose-related reduction in numbers in both sexes; also recorded: dose-related reduction in platelet counts in both sexes | segmented neutrophils (result in words) ([2]; 28 days gavage, 3.1 and 5.1 g/Kg/day, rats): dose-related reduction in segmented neutrophil production; also recorded: marked decrease in segmented neutrophils which was dose-related; also recorded: reduction in segmented neutrophils | effect on the erythroid series ([2]; 28 days gavage, rats): no apparent effect on the erythroid series | total leukocyte counts (result in words) ([2]; 28 days gavage, rats): reductions in total leukocyte counts | Segmented Neutrophils (mean) ([2]; females, D-allose 3.1 g/kg/day, control 1.8): 0.5 × 10^3 /cmm | Band Neutrophils (mean) ([2]; females, D-allose 3.1 g/kg/day): 0.0 × 10^3 /cmm | Basophils (mean) ([2]; females, D-allose 3.1 g/kg/day): 0.0 × 10^3 /cmm | Other Cells (mean) ([2]; females, D-allose 3.1 g/kg/day): 0.0 × 10^3 /cmm | Eosinophils (mean) [2, 7]: 0.1 × 10^3 /cmm | Monocytes (mean) [2, 7]: 0.1 × 10^3 /cmm | Erythrocytes (mean) ([2]; females, D-allose 3.1 g/kg/day, control 6.17): 6.24 × 10^6 /cumm | Leukocytes (mean) ([2]; females, D-allose 3.1 g/kg/day): 6.5 × 10^3 /cumm | Platelets (mean) ([2]; females, D-allose 3.1 g/kg/day, control 992): 567 × 10^3 /cmm | Segmented Neutrophils (mean) ([2]; females, D-allose 5.1 g/kg/day, control 1.8): 0.1 × 10^3 /cmm | Band Neutrophils (mean) ([2]; females, D-allose 5.1 g/kg/day): 0.0 × 10^3 /cmm | Basophils (mean) ([2]; females, D-allose 5.1 g/kg/day): 0.0 × 10^3 /cmm | Other Cells (mean) ([2]; females, D-allose 5.1 g/kg/day): 0.0 × 10^3 /cmm | Eosinophils (mean) ([2]; females, D-allose 5.1 g/kg/day, control 0.1): 0.1 × 10^3 /cmm | Erythrocytes (mean) ([2]; females, D-allose 5.1 g/kg/day, control 6.17): 6.42 × 10^6 /cumm | Leukocytes (mean) ([2]; females, D-allose 5.1 g/kg/day): 5.4 × 10^3 /cumm | Platelets (mean) ([2]; females, D-allose 5.1 g/kg/day, control 992): 414 × 10^3 /cmm | Segmented Neutrophils (mean) ([2]; males, D-allose 3.1 g/kg/day, control 1.9): 0.9 × 10^3 /cmm | Band Neutrophils (mean) ([2]; males, D-allose 3.1 g/kg/day): 0.0 × 10^3 /cmm | Basophils (mean) ([2]; males, D-allose 3.1 g/kg/day): 0.0 × 10^3 /cmm | Other Cells (mean) ([2]; males, D-allose 3.1 g/kg/day): 0.0 × 10^3 /cmm | Eosinophils (mean) [2, 8]: 0.1 × 10^3 /cmm | Monocytes (mean) [2, 8]: 0.1 × 10^3 /cmm | Erythrocytes (mean) ([2]; males, D-allose 3.1 g/kg/day, control 6.85): 7.10 × 10^6 /cumm | Lymphocytes (mean) ([2]; males, D-allose 3.1 g/kg/day): 9.1 × 10^3 /cmm | Leukocytes (mean) ([2]; males, D-allose 3.1 g/kg/day): 10.3 × 10^3 /cumm | Platelets (mean) ([2]; males, D-allose 3.1 g/kg/day, control 1072): 546 × 10^3 /cmm | Segmented Neutrophils (mean) ([2]; males, D-allose 5.1 g/kg/day, control 1.9): 0.2 × 10^3 /cmm | Band Neutrophils (mean) ([2]; males, D-allose 5.1 g/kg/day): 0.0 × 10^3 /cmm | Basophils (mean) ([2]; males, D-allose 5.1 g/kg/day): 0.0 × 10^3 /cmm | Other Cells (mean) ([2]; males, D-allose 5.1 g/kg/day): 0.0 × 10^3 /cmm | Eosinophils (mean) [2, 9]: 0.1 × 10^3 /cmm | Monocytes (mean) [2, 9]: 0.1 × 10^3 /cmm | Erythrocytes (mean) ([2]; males, D-allose 5.1 g/kg/day, control 6.85): 7.03 × 10^6 /cumm | Lymphocytes (mean) ([2]; males, D-allose 5.1 g/kg/day): 5.6 × 10^3 /cmm | Leukocytes (mean) ([2]; males, D-allose 5.1 g/kg/day, significantly different from control): 5.9 × 10^3 /cumm | Platelets (mean) ([2]; males, D-allose 5.1 g/kg/day, control 1072): 320 × 10^3 /cmm | duration of suppressive effect ([2]; rats, suppression of segmented neutrophil and platelet production): remains only so long as D-allose administration is continued | effect on appearance or behavior (clinical signs) (Crl:CD®BR rats): no definitive D-allose-related effect | mean food consumption values or mean food efficiency values (Crl:CD®BR rats): no D-allose-related effect | mean water consumption values (Crl:CD®BR rats): no D-allose-related effect | Cholesterol ([3]; males, high dose (5.1 g/kg/day), vs. 51 mg/dl, significantly increased): 72 mg/dL | pH ([3]; treated animals): decreased | Urine volumes ([3]; treated groups): decreased | urine specific gravity ([3]; treated groups): increased | numbers of late stage neutrophils in bone marrow (bone marrow; 3.1 and 5.1 g/kg/day, most striking in the high dose groups): decreased numbers of late stage neutrophils | mature myeloid cells in the bone marrow smears (bone marrow; 28 days gavage, rats): marked reduction in mature myeloid cells | bone marrow erythroid series (bone marrow; all groups): well represented with a normal maturation sequence | cytological integrity of the cells in the neutrophil series (bone marrow; both dosage groups (3.1 and 5.1 g/kg/day)): overall decrease in cytological integrity | Myeloid to erythroid ratios in bone marrows (bone marrow; both treatment groups, usually, control approximately 1.6 to 3.0): less than 1.0 | bone marrow cellularity and megakaryocytes (bone marrow; control and both treatment groups): very cellular with adequate numbers of active megakaryocytes in varying stages of maturity | findings at necropsy or on histopathological examination (major tissues and organs): no treatment related findings | radioactivity retained in carcass ([4]; all groups): less than 1% | excretion of radiolabel in the feces, of the recovered dose ([4]; corrected for recovery): 6 to 9% | urinary excretion, of the recovered dose ([4]; corrected for recovery, average, all three test groups): approximately 90% | differences in the rates or routes of excretion between treatment groups ([4]; radiolabeled D-allose): no substantial differences | radioactivity excretion routes ([4]; radiolabeled D-allose, rats): most of the radioactivity was excreted in the urine with a small amount in the feces and lesser amounts in exhaled air and retained in the carcass | Radiation in exhaled air ([4]; rat, in vivo): less than 0.5% | effects on survival, appearance, behavior, body weights, food consumption or water consumption ([4]; rat, in vivo): no D-allose-related effects | HPLC of urine from treated animals [5]: major peak corresponding to the spiked D-allose peak | undigested D-allose in the urine [5]: confirmed the presence of undigested D-allose in the urine | water solubility (water solubility): high water solubility
